{
  "source": "patent US11162142B2",
  "about": "“BCR-ABL1 splice variants and uses thereof” (Quest Diagnostics Investments Incorporated, priority 2010, dated 2021)",
  "origin": "cited, not measured here",
  "key": {"CML": {"system": "CML", "conditions": "all stages of CML"}},
  "note": "Counter-ions that a name gives are not always drawn. Like-named read-outs stand apart in the source and are kept apart here.",
  "data": [
    {"smiles": "Cc1ccc(NC(=O)c2ccc(CN3CCN(C)CC3)cc2)cc1Nc1nccc(-c2cccnc2)n1", "note": "[imatinib, imatinib mesylate]", "values": [
      {"measurement": "Primary resistance (failure to achieve any hematologic response) rate", "setting": "patients with CML; accelerated-phase CML", "result": 9, "unit": "%"},
      {"measurement": "Secondary resistance (hematologic recurrence) rate", "setting": "patients with CML; accelerated-phase CML", "result": 32, "unit": "%"},
      {"measurement": "Primary resistance (failure to achieve any hematologic response) rate", "setting": "patients with CML; blast-phase CML", "result": 51, "unit": "%"},
      {"measurement": "Secondary resistance (hematologic recurrence) rate", "setting": "patients with CML; blast-phase CML", "result": 41, "unit": "%"},
      {"measurement": "Primary resistance (failure to achieve any hematologic response) rate", "setting": "patients with CML; chronic-phase CML", "result": 3, "unit": "%"},
      {"measurement": "Secondary resistance (hematologic recurrence) rate", "setting": "patients with CML; chronic-phase CML", "result": 22, "unit": "%"},
      {"measurement": "Effectiveness of monotherapy", "setting": "CML", "result": "effective for all stages of CML"}
    ]}
  ]
}
